Several values for one entry are separate records, joined by “and”; a condition that tells them apart may be missing. Identical values can stand only once.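 All cell lines were grown in 96-well plates and treated with compound for 48 hours. GI50 marks 50% less growth. Definition used: TGI = concentration required for complete inhibition of growth.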
What was measured:
Experiment in all cases: DTP human tumour cell line panel, 48 h
CAKI-1 renal = system: CAKI-1 renal
COLO 205 colon = system: COLO 205 colon
HCT-116 colon = system: HCT-116 colon
HCT-15 colon = system: HCT-15 colon
IGROV1 ovarian = system: IGROV1 ovarian
NCI-H460 lung = system: NCI-H460 lung
RPMI-8226 leukemia = system: RPMI-8226 leukemia
SF-295 CNS = system: SF-295 CNS
SK-MEL-5 melanoma = system: SK-MEL-5 melanoma
TK-10 renal = system: TK-10 renal

SMILES | GI50 (CAKI-1 renal) | TGI (CAKI-1 renal) | GI50 (COLO 205 colon) | TGI (COLO 205 colon) | GI50 (HCT-116 colon) | TGI (HCT-116 colon) | GI50 (HCT-15 colon) | TGI (HCT-15 colon) | GI50 (IGROV1 ovarian) | TGI (IGROV1 ovarian) | GI50 (NCI-H460 lung) | TGI (NCI-H460 lung) | GI50 (RPMI-8226 leukemia) | TGI (RPMI-8226 leukemia) | GI50 (SF-295 CNS) | TGI (SF-295 CNS) | GI50 (SK-MEL-5 melanoma) | TGI (SK-MEL-5 melanoma) | GI50 (TK-10 renal) | TGI (TK-10 renal)
Nc1cc(-c2ccc(Cl)cc2)nn1-c1nnc(/C=C/c2ccco2)c(=O)[nH]1 | 0.842 µM | 7.04 µM | 3.64 µM | > 42.9 µM | 3.15 µM | 15.8 µM | 1.38 µM | > 49.1 µM | 4.89 µM | 37.8 µM | 2.15 µM | 15.3 µM | 1.54 µM | > 48.1 µM | 2.1 µM | 27.7 µM | 3.37 µM | 20.2 µM | 5.6 µM | 36.1 µM
c1cnn2ncc(-c3ccnc(Nc4ccc5c(c4)OCCO5)n3)c2c1 | 0.0773 µM | > 8.78 µM | 0.0473 µM | 0.107 µM | 0.0533 µM | 1.04 µM | 0.0863 µM | > 25 µM | 0.0815 µM | > 25 µM | 0.0731 µM | 0.258 µM | 0.0783 µM | 0.388 µM | 0.0799 µM | 0.987 µM | 0.0651 µM | 0.632 µM | 0.0685 µM | 0.224 µM
CC(C)(C)c1ccc(OC2CCO2)cc1 (stereo not given) |  | > 100 µM |  | 70.5 µM |  | 41.8 µM |  | 36.9 µM |  | > 100 µM |  | 53.3 µM |  | 47 µM |  | > 100 µM |  | > 100 µM |  | > 100 µM
COC(=O)c1ccc2c(c1)C(=O)c1c-2n(CCCN=[N+]=[N-])c(=O)c2cc([N+](=O)[O-])ccc12 | > 100 µM | > 100 µM | > 100 µM | > 100 µM | 47.4 µM | > 100 µM | > 100 µM | > 100 µM | 21 µM | > 100 µM | 38.1 µM | > 100 µM | 63.3 µM | > 100 µM | 59.8 µM | > 100 µM | > 100 µM | > 100 µM | 29.6 µM | 68.6 µM
Cc1cccc(C)c1N1C(=O)C(=O)C(c2nc3ccccc3s2)C(=Nc2cccc3c(=O)[nH][nH]c(=O)c23)C1=O (stereo not given) |  | > 100 µM |  | > 100 µM |  | > 100 µM |  | > 100 µM |  | > 100 µM |  | > 100 µM |  | > 100 µM |  | > 100 µM |  | > 100 µM |  | > 100 µM
Cc1ccc(-n2nc(C(C)(C)C)cc2NC(=O)NCc2cc(F)ccc2Oc2ccc3c(cnn3CCO)c2)cc1 | 9.61 µM and 6.5 µM | > 100 µM | 0.795 µM and 1.86 µM | > 10 µM and 10.9 µM | 2.34 µM and 2.46 µM | > 36.3 µM | > 10 µM and 8.9 µM | > 100 µM | 2.59 µM and 4.69 µM | > 100 µM | > 10 µM and 4.85 µM | > 59.7 µM | 3.28 µM and 2.7 µM | > 10 µM and 28.7 µM | > 10 µM and 10.2 µM | > 100 µM | 2.39 µM and 3.15 µM | > 10 µM and 13.2 µM | > 10 µM and 10.8 µM | > 91.9 µM
CC1=NN(C(=O)c2ccncc2)C(=O)C1N=Nc1ccc(F)cc1 (stereo not given) |  | > 100 µM |  | > 100 µM |  | > 100 µM |  | > 100 µM |  | > 100 µM |  | > 100 µM |  | > 100 µM |  | > 100 µM |  | > 100 µM |  | > 100 µM
